Columns and labels:
wild-type C57BL/6 mice = assay: Acute oral glucose tolerance test (OGTT) in wild-type mice; format: in vivo, mouse; settings: 10 mg/kg i.p. 10 min before 2 g/kg oral glucose load, wild-type C57Bl/6J mice
Protocol: (§1) In order to evaluate the short-term effects of the rimonabant-like molecules, as well as their selectivity for CB1R, wild-type C57BL/6 mice and CB1R −/− mice underwent an oral glucose tolerance test (OGTT at 2 g/kg) 10 min after i.p. injection of vehicle or of JM-02.003 or JM-00.266 (i.e., compound IA) (10 mg/kg). Blood glucose was measured at times t=0, t=15 min, t=30 min, t=45 min, t=60 min, t=90 min, and t=120 min post-oral. glucose administration using a Contour®TS blood glucose monitor (ref. 81574201, Bayer HealthCare) and reactive strips (ref. 81574274, Bayer HealthCare).

[1] = test system: liver, subcutaneous and visceral adipose tissue of obese mice; assay: Gene expression of markers (RT-PCR) in liver and adipose tissues after oral treatment with food; format: in vivo, mouse
obese C57BL/6 mice [2] = assay: Plasma liver markers after 30-day chronic treatment; format: in vivo, mouse
Text: In order to determine the long-term effects of the molecules of interest, C57BL/6 mice made obese by means of a high-sucrose, high-fat diet (HSHF: 30% crude fat, 33.5% carbohydrates; ref. E15126-34; ref. E15126-34, SSNIFF, Soest, Germany) for 20 weeks. These mice then received daily an i.p. injection of rimonabant, JM-00.266 (i.e., compound IA) or vehicle for a period of 30 days. In parallel, weight and food intake were monitored every two days following the beginning of the treatment.
(§2) Total cholesterol, triglycerides and hepatic markers were assayed by a Dimension Vista Intelligent Lab System (Siemens, Saint-Denis, France) using suitable reagents.

obese C57BL/6 mice [3] = assay: ITT before and after 30-day chronic treatment; format: in vivo, mouse; settings: obese mice after 30 days of treatment
Protocol: (§3) In order to evaluate the long-term effects of the treatment on blood glucose control, glucose tolerance (OGTT) and insulin sensitivity (ITT) were evaluated pre- and post-treatment. Thus, for the OGTT the mice were force-fed glucose (2 g/kg), and for the ITT the mice received an i.p. injection of insulin (0.5 IU/kg). In both cases, blood glucose was measured at times t=0, t=15 min, t=30 min, t=45 min, t=60 min, t=90 min, and t=120 min post-glucose ingestion using a Contour®TS blood glucose monitor (ref. 81574201, Bayer HealthCare) and reactive strips (ref. 81574274, Bayer HealthCare).

obese C57BL/6 mice [4] = assay: Glucose tolerance test after oral treatment simultaneously with food; format: in vivo, mouse; settings: 28 days, administered at the same time as the meal
Protocol: (§4) In order to evaluate the long-term effects of the treatment on blood glucose control, glucose tolerance was evaluated at the end of the treatment period. The mice received an intraperitoneal injection of glucose (2 g/kg) then blood glucose was measured at times t=0, t=15 min, t=30 min, t=45 min, t=60 min, t=90 min, and t=120 min post-glucose injection using a My Life Pura blood glucose monitor (Ypsomed, Paris, France).

[5] = Plasma assay of triglycerides; format: in vivo, mouse; settings: context of obesity; stated in conclusion only
Protocol: as §2

C57BL/6 mice = assay: Gastrointestinal transit (charcoal), anandamide-induced inhibition; format: in vivo, mouse; settings: 10 mg/kg i.p. with AEA 10 mg/kg i.p.
Protocol: Transit through the stomach and the intestine was measured via oral administration of vegetable charcoal suspended in gum arabic used herein as nonabsorbable marker. Briefly, following a short fast, C57BL/6 mice were injected intraperitoneally (i.p.) with anandamide (10 mg/kg) in the presence or absence of the molecule of interest JM-00.266 (i.e., compound IA) (10 mg/kg) before oral charcoal administration. 25 minutes later, the animals were sacrificed by cervical dislocation in order to entirely remove the intestine. The distance between the beginning of the pylorus and the location of the charcoal bolus was measured.

obese C57BL/6 mice [6] = assay: Glucose tolerance test after 43-day oral treatment with low-fat diet; format: in vivo, mouse; settings: 43 days, orally 10 mg/kg once per day
Protocol: as §4

[7] = test system: CB1R expression in liver explants of ob/ob mice; assay: Liver explant culture, CB1R gene expression (RT-PCR); format: cell-based, mouse; settings: liver explants of ob/ob mice treated 21 h, FIG. 1
Protocol: The liver of the mice was perfused in situ, under sodium pentobarbital anaesthesia (50 mg/kg), with Hank's medium (pH 7.4) saturated with oxygen. Next, the liver was sectioned using a Brendel/Vitron slicer (Tucson, Ariz., USA) in the same medium. The liver sections (about 200 μm) were then incubated 21 h in William's medium E (WME) oxygenated and supplemented with deactivated foetal calf serum (10%) and antibiotic/antifungal cocktail (1%) under controlled atmosphere (5% CO2), to which is added either the antagonist to be tested or vehicle.
Total messenger RNA (mRNA) extraction was carried out with Tri Reagent (Euromedex, France) and consecutive synthesis of complementary DNA (cDNA) was carried out from 1 μg of mRNA with the Bio-Rad iScripttm Reverse Transcription super mix kit (Bio-Rad, France).
Gene expression was evaluated by semi-quantitative real-time reverse transcription-polymerase chain reaction (RT-PCR). The primers used were designed using the Primer3Plus software (http://www.bioinformatics.nl/cgi-bin/primer3plus/primer3plus.cgi) and were synthesized by MWG-Biotech (TATA box-binding protein: Sense […], antisense […]; CB1R: Sense […], antisense aaccccacccagtttgaac). Semi-quantification of gene expression was obtained by taking into account the efficacy of each PCR and after standardization with the reporter gene, TATA box-binding protein.

CB1R -/- mice = assay: Acute oral glucose tolerance test (OGTT) in CB1R KO mice; format: in vivo, mouse; settings: 10 mg/kg i.p., OGTT 2 g/kg
Protocol: as §1

obese C57BL/6 mice [8] = assay: OGTT before and after 30-day chronic treatment; format: in vivo, mouse; settings: obese mice after 30 days of treatment, 10 mg/kg
Protocol: as §3

[9] = obese mice, 10 mg/kg i.p. daily, 30 days

Compound: CSc1ccc(C2C(N3C(=O)c4ccccc4C3=O)C(=O)N2c2ccc(SC)cc2)cc1 (stereo not drawn) [JM-00.266, trans-1,4-di-(4-methylthiophenyl)-3-N-phthaloyl-azetidine-2-one]
- glucose tolerance compared with vehicle (wild-type C57BL/6 mice): improves glucose tolerance
- G6P expression [1]: reduction
- GLUT4 expression [1]: reduction
- liver damage markers compared with the control (obese C57BL/6 mice [2]; 30-day chronic treatment): does not cause an increase
- liver toxicity (obese C57BL/6 mice [2]; chronic administration): no liver toxicity
- ALPI plasma concentration (obese C57BL/6 mice [2]; [9]): 47.3 ± 3.6
- ALT plasma concentration (obese C57BL/6 mice [2]; [9]): 34.3 ± 10.5 U/L
- AST plasma concentration (obese C57BL/6 mice [2]; [9]): 60.8 ± 13.4 U/L
- Gamma GT plasma concentration (obese C57BL/6 mice [2]; [9]): <3 U/L
- Total bilirubin plasma concentration (obese C57BL/6 mice [2]; [9]): <2 µmol/L
- reduction in blood glucose induced by insulin injection, compared with SR141716 (obese C57BL/6 mice [3]): more marked
- insulin resistance (ITT) (obese C57BL/6 mice [3]; 10 mg/kg): improved
- glucose tolerance versus vehicle (obese C57BL/6 mice [4]): better glucose tolerance
- blood triglycerides [5]: decreasing blood triglycerides
- effect on AEA-induced inhibition of gastrointestinal transit (C57BL/6 mice): completely abolishes the effect of the agonist and normalizes gastrointestinal transit
- glucose tolerance versus VEH+LF and VEH+HF (obese C57BL/6 mice [6]): better glucose tolerance
- hepatic CB1R expression [7]: significant decrease
- improvement in glucose tolerance in CB1R KO mice (CB1R -/- mice): abolished
- basal blood glucose (obese C57BL/6 mice [8]): significant improvement
- glucose tolerance (OGTT 2 g/kg) (obese C57BL/6 mice [8]): significant improvement

— patent US10457665B2, “1,4-di-(4-methylthiophenyl)-3-phtaloylazetidine-2-one and the derivatives thereof” (Universite De Nantes, priority 2015, dated 2019)
